Data published in patent publication US20040132739A1, “Combination of a gelatinase inhibitor and an anti-tumor agent, and uses thereof” (priority 2001, published 2004).

How the values were obtained:
HOC-22 ovarian carcinoma = assay: human orthotopic ovarian carcinoma mouse xenograft model HOC-22, survival; type: in vivo; conditions: versus vehicle/control mice (median survival 30 days); RO 28-2653 45 mg/kg oral daily six times a week, day 7 to 21; Cisplatin 4 doses of 3 mg/kg i.v. every 4 days from day 7
Description: DDP=Cisplatin. […] Statistics was calculated using the log rank test. […] Cisplatin treatment consisted of 4 doses of 3 mg/kg i.v. per mouse once every 4 days, starting on day 7.

[1] = tested on: MatLyLu prostate carcinoma; assay: rat syngeneic orthotopic prostate carcinoma model MatLyLu, primary tumor size; type: in vivo; conditions: as compared to vehicle-treated animals; RO 28-2653 100 mg/kg oral daily, Etoposide 25 mg/m^2 i.p. once daily, day 6 to day 17
Description: Etoposide was given intraperitoneally once daily, from day 6 to day 17, at a dose of 25 mg/m^2.

[2] = tested on: PancTul pancreas carcinoma; conditions: for inhibition of primary tumor growth: RO 28-2653 45 mg/kg oral daily day 7 to 30; for inhibition of primary tumor growth / Volume Primary tumor (Vm) / average number of metastases per animal: Gemcitabine 2.2 mg/kg i.p. every second day, day 7 to 30; for Volume Primary tumor (Vm) / average number of metastases per animal: RO 28-2653 45 mg/kg oral daily; for Metastasis Diaphragm / Metastasis Kidneys/Adrenal gland (capsule) / Metastasis Ligament of the uterus/testis (serosa), seminal vesicles / Metastasis Liver hilus / Metastasis Liver, in parenchyme / Metastasis Liver, on serosa / Metastasis Lung/Mediastinum / Metastasis Lymph nodes in mesentery / Metastasis Mesentery 3-20 metastasis(1-18 mm^3) / Metastasis Mesentery < 3 metastasis(^2 mm^3) / Metastasis Pelvis / Metastasis Site of surgical incision Large 80-280 mm^3 / Metastasis Site of surgical incision Medium < 50 mm^3 / Metastasis Site of surgical incision Small < 10 mm^3 / Metastasis Spleen (serosa), gastrosplenic ligament: animals with metastasis / animals in group; for Necrosis Primary tumor: animals with necrosis / animals in group; for Tumor take rate Primary tumor: animals with tumor / animals in group; for Body weight (m): mean change (spread)
Description: The activity of RO 28-2653 in combination with Gemcitabine was evaluated in the human orthotopic pancreas carcinoma mouse xenograft model PancTul with primary tumor size and number and size of metastases as endpoints.
Effect of the combination of RO 28-2653 and Gemcitabine on primary tumor volume in the orthotopic PancTul pancreas cancer xenograft model. Mice were treated with RO 28-2653 with daily oral doses of 45 mg/kg from day 7 until day 30. Gemcitabine treatment consisted of one intraperitoneal dose of 2.2 mg/kg every second day from day 7 to day 30.
Effect of the combination of RO 28-2653 and Gemcitabine on metastatic spread in the orthotopic PancTul pancreas cancer xenograft model. Mice were treated with RO 28-2653 with daily oral doses of 45 mg/kg from day 7 until day 30. Gemcitabine treatment consisted of one intraperitoneal dose of 2.2 mg/kg every second day from day 7 to day 30.

[3] = toxicological tests over a wide range of doses; type: in vivo; conditions: side effects like those of broad-spectrum MMP inhibitors
Text: Thus, no dose-limiting toxicities were expected with RO 28-2653, and accordingly no additional benefit from co-treatment with cytostatic/cytotoxic drugs was expected. However, to explore also the distant possibility of an additional benefit from combination treatment, such studies were initiated and conducted in various animal models. The models and cytostatic/cytotoxic drugs were chosen to reflect as broad a spectrum of oncological indications and clinically active treatment principles as possible.

With `N.N.[Cl][Pt][Cl]` [Cisplatin, reference compound] the increase in lifespan (HOC-22 ovarian carcinoma) was 95%.
With `COc1cc([C@@H]2c3cc4c(cc3[C@@H](O[C@@H]3O[C@@H]5CO[C@@H](C)O[C@H]5[C@H](O)[C@H]3O)[C@H]3COC(=O)[C@H]23)OCO4)cc(OC)c1O` [Etoposide, reference compound] the “inhibition of primary tumor growth” value [1] was 35%.
With `Nc1ccn([C@@H]2O[C@H](CO)[C@@H](O)C2(F)F)c(=O)n1` [Gemcitabine, reference compound] the “inhibition of primary tumor growth” value [2] was 85%, the “Volume Primary tumor (Vm)” value [2] was “Vm = 51 (±14) mm^3” and the “average number of metastases per animal” value [2] was 0.4 metastases per animal. For the same compound, the “Metastasis Diaphragm” value [2] was 0/13, the “Metastasis Kidneys/Adrenal gland (capsule)” value [2] was 0/13 and the “Metastasis Ligament of the uterus/testis (serosa), seminal vesicles” value [2] was 0/13. For the same compound, the “Metastasis Liver hilus” value [2] was 0/13, the “Metastasis Liver, in parenchyme” value [2] was 1/13 and the “Metastasis Liver, on serosa” value [2] was 1/13. For the same compound, the “Metastasis Lung/Mediastinum” value [2] was 0/13, the “Metastasis Lymph nodes in mesentery” value [2] was 0/13 and the “Metastasis Mesentery 3-20 metastasis(1-18 mm^3)” value [2] was 0/13. For the same compound, the “Metastasis Mesentery < 3 metastasis(^2 mm^3)” value [2] was 0/13, the “Metastasis Pelvis” value [2] was 0/13 and the “Metastasis Site of surgical incision Large 80-280 mm^3” value [2] was 0/13. For the same compound, the “Metastasis Site of surgical incision Medium < 50 mm^3” value [2] was 1/13, the “Metastasis Site of surgical incision Small < 10 mm^3” value [2] was 2/13 and the “Metastasis Spleen (serosa), gastrosplenic ligament” value [2] was 0/13. The “Necrosis Primary tumor” value [2] was 4/13, the “Tumor take rate Primary tumor” value [2] was 13/13 and the “Body weight (m)” value [2] was “m = −2 (±5)%”.
With `O=C1NC(=O)C(c2ccc(-c3ccccc3)cc2)(N2CCN(c3ccc([N+](=O)[O-])cc3)CC2)C(=O)N1` [RO 28-2653, 5-(4-biphenyl)-5-[N-(4-nitrophenyl)piperazinyl] barbituric acid] the “inhibition of primary tumor growth” value [2] was 66%, the “Volume Primary tumor (Vm)” value [2] was “Vm = 112 (±46) mm^3” and the “average number of metastases per animal” value [2] was 2.5 metastases per animal. For the same compound, the “Metastasis Diaphragm” value [2] was 3/13, the “Metastasis Kidneys/Adrenal gland (capsule)” value [2] was 1/13 and the “Metastasis Ligament of the uterus/testis (serosa), seminal vesicles” value [2] was 0/13. The “Metastasis Liver hilus” value [2] was 4/13, the “Metastasis Liver, in parenchyme” value [2] was 3/13 and the “Metastasis Liver, on serosa” value [2] was 2/13. For the same compound, the “Metastasis Lung/Mediastinum” value [2] was 2/13, the “Metastasis Lymph nodes in mesentery” value [2] was 2/13 and the “Metastasis Mesentery 3-20 metastasis(1-18 mm^3)” value [2] was 5/13. For the same compound, the “Metastasis Mesentery < 3 metastasis(^2 mm^3)” value [2] was 0/13, the “Metastasis Pelvis” value [2] was 0/13 and the “Metastasis Site of surgical incision Large 80-280 mm^3” value [2] was 6/13. For the same compound, the “Metastasis Site of surgical incision Medium < 50 mm^3” value [2] was 3/13, the “Metastasis Site of surgical incision Small < 10 mm^3” value [2] was 2/13 and the “Metastasis Spleen (serosa), gastrosplenic ligament” value [2] was 0/13. For the same compound, the “Necrosis Primary tumor” value [2] was 1/13, the “Tumor take rate Primary tumor” value [2] was 13/13 and the “Body weight (m)” value [2] was “m = −5 (±4)%”. The side effects [3] was “no side effects”, the increase in lifespan (HOC-22 ovarian carcinoma) was 63% and the “inhibition of primary tumor growth” value [1] was 86%.
